Peptide text beside a SMILES is read from it.
Tests used:
MARK2 [1] = biological target: MARK2 (Rattus norvegicus, UniProt O08679); test: Immunofluorescence of PAO-induced MARK2-mediated tau Ser262 phosphorylation in neurons; format: cell-based
[2] = In vitro peptide stability in neurobasal (NB) media (RP-HPLC); format: in vitro ADME; conditions: 37° C., up to 24 hours
Description: Stock peptide solutions for use in stability assays were prepared by dissolving tR1 to a final concentration of 5 mg/mL in dimethyl sulfoxide (DMSO). For stability tests, 2 μL of stock tR1 peptides were added to 198 μL pre-warmed RPMI medium supplemented with 25% (v/v) heat-inactivated human AB serum or neurobasal (NB) media at a final concentration of 50 μg/mL. Each reaction was subsequently incubated at 37° C. for the indicated times. Following incubation, 400 μL aqueous trichloroacetic acid (15%, w/v) was added to each reaction and the samples were immediately cooled on ice for 15 minutes. The samples were then centrifuged 3× at 14,000 rpm to remove precipitated proteins. […] The background signal was subtracted from each respective spectrum and the fraction of intact peptide was quantified from product peak integration normalized to undigested controls. […]
A major limitation to the therapeutic efficacy of peptides is their susceptibility to proteolytic degradation. Indeed, short peptides generally have a serum half-life measured in minutes. The in vitro stability of tR1 peptides in the presence of proteolytic enzymes was determined. […] Following the incubation, the reactions were quenched using haloacetic acids and the extent of degradation was quantified by analytical HPLC.

MARK2 [3] = biological target: MARK2 (Homo sapiens, UniProt Q7KZI7); test: In vitro phosphorylation assay: inhibition of MARK2-mediated phosphorylation of hTau-K18 (western blot, α-Tau pSer262); format: biochemical
MARK2 (Homo sapiens, UniProt Q7KZI7), sequence (Q7KZI7 whole entry): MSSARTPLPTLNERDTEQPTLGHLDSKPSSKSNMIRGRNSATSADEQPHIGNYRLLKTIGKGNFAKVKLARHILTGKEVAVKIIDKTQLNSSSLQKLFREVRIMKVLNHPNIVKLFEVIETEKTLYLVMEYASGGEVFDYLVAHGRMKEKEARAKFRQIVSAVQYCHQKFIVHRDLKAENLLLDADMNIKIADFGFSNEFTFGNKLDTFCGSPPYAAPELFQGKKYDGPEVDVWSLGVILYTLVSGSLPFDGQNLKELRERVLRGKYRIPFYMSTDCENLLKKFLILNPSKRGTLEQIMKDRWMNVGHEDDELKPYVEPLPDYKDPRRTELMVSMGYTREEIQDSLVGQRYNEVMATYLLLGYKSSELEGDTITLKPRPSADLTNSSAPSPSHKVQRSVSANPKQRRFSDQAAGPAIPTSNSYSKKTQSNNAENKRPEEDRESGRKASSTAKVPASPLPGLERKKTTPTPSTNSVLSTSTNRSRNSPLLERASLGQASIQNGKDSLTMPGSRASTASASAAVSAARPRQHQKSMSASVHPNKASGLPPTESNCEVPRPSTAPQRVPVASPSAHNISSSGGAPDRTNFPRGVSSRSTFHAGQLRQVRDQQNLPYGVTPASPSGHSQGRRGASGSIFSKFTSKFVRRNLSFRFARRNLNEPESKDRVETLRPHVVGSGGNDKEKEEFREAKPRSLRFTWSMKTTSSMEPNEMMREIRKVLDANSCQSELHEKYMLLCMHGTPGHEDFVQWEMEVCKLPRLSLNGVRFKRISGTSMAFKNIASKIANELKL
Description: The ability for MARK2 to phosphorylate hTau K18 was evaluated in vitro by incubating MARK2 with hTau-K18 in the presence or absence of ATP (FIG. 1B). All phosphorylation reactions were carried out for 60 minutes at 32° C. in phosphorylation buffer (50 mM Tris-HCl, 5 mM MgCl2, 2 mM EGTA, 0.5 mM DTT, 0.5 mM benzamidine HCl, 0.5 mM PMSF, pH 8.0). Following the reaction, phosphorylated hTau-K18 proteins were separated by SDS-PAGE and identified by western blot using antibodies specific for hTau pSer262 (FIG. 1B, lanes 1 and 2). As a loading control, total hTau-K18 in each lane was quantified by western blot using antibodies specific for non-phosphorylated hTau-K18 (FIG. 1B, lower image). To ensure that the phosphorylation of hTau-K18 was a result of kinase activity and not auto-phosphorylation by ATP, hTau-K18 was incubated in the absence of MARK2 with or without ATP (FIG. 1B, lanes 3 and 4).
The ability for the tR1 peptide to act as an inhibitor of MARK2-mediated phosphorylation of hTau-K18 in vitro was examined. To test this, MARK2 and hTau-K18 were incubated in the presence of varying concentrations of tR1 for 60 minutes at 32° C. in phosphorylation buffer. Following the reaction, the proteins were separated by SDS-PAGE and identified by Western blot using antibodies specific for hTau pSer262 (FIG. 1C). Total hTau-K18 in each lane was quantified using antibodies specific for non-phosphorylated hTau-K18 (FIG. 1C, lower image).
Phosphorylation assays were performed in 30 μL phosphorylation buffer (50 mM Tris-HCl, 5 mM MgCl2, 2 mM EGTA, 0.5 mM DTT, 0.5 mM benzamidine HCl, 0.5 mM PMSF, pH 8.0) and depending on the experimental conditions. 100 μM ATP, 10 μM hTau K18, 10 nM MARK2, and 10 μM tR1 were added to the reaction mixture. The reaction was carried out for 1 hour at 32° C. […] Images were acquired by a Bio-Rad Gel Doc EZ imager and the band intensity was quantified using Image Lab Software c5.2.1 (Bio-Rad).

MARK2 (Rattus norvegicus, UniProt O08679), sequence (O08679 whole entry): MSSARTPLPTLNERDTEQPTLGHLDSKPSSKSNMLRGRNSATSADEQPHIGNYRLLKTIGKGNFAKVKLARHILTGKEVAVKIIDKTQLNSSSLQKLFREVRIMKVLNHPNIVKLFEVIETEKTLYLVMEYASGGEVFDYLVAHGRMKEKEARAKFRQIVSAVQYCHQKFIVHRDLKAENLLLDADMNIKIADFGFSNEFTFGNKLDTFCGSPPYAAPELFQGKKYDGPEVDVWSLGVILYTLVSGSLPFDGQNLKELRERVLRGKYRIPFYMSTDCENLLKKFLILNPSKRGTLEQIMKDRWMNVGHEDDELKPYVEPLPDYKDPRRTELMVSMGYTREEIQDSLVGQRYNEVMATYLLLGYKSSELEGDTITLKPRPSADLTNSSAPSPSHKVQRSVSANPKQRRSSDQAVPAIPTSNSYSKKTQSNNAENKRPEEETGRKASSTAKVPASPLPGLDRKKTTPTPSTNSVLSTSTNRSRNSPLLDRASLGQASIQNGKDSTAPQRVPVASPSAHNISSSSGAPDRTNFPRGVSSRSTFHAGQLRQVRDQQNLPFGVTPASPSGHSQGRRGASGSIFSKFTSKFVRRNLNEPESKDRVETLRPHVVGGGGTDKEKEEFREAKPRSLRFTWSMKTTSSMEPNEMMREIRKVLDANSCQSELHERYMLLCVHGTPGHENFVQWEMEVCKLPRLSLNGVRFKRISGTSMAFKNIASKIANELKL

For `CC[C@H](C)[C@H](NC(=O)[C@H](CCCCN)NC(=O)[C@H](CO)NC(=O)[C@H](CCCCN)NC(=O)[C@@H](NC(=O)[C@H](CC(N)=O)NC(C)=O)C(C)C)C(=O)NCC(=O)N[C@@H](CO)C(=O)N[C@H](C(=O)N[C@@H](CCC(=O)O)C(=O)N[C@@H](CC(N)=O)C(=O)N[C@@H](CC(C)C)C(=O)N[C@@H](CCCCN)C(N)=O)[C@@H](C)O` [tR1, NVKSKIGSTENLK] (Ac-NVKSKIGSTENLK-NH2), the “reduction in tau Ser262 phosphorylation” value (MARK2 [1]; 10 μM tR1, co-treated with bafilomycin A1 or 100 μM chloroquine, 5 μM PAO) was “modest reduction in tau phosphorylation”, the “loss in tau pSer262 signal compared to cells treated with PAO alone” value (MARK2 [1]; 30 μM peptide and bafilomycin, PAO) was about 50% and the “loss in tau pSer262 signal” value (MARK2 [1]; 30 μM peptide and chloroquine, PAO) was “loss in signal comparable to that of baseline”. For the same molecule, the “inhibition of MARK2-mediated phosphorylation of tau Ser262” value (MARK2 [1]; 30 μM tR1, co-treated with bafilomycin A1 or 100 μM chloroquine, 5 μM PAO) was “near complete inhibition”, the “inhibition of MARK2-mediated phosphorylation of tau Ser262” value (MARK2 [1]; tR1 peptides alone (no endosome disruptor), 5 μM PAO) was “did not inhibit” and the “fraction of intact tR1 (stable)” value [2] was over 90%. The remaining at 24 h, 50 μg/mL ([2]; neurobasal (NB) media, read-out: fraction of intact tR1 (stable)) was over 90%, the “established in vitro inhibitory concentration” value (MARK2 [3]) was 10 µM and the inhibition at 50 µM (MARK2 [3]; 50 μM tR1, 60 minutes at 32° C. in phosphorylation buffer, read-out: inhibition of MARK2 activity (hTau-K18 Ser262 phosphorylation, densitometry)) was at most 66%. For the same molecule, the “concentrations at which tR1 effectively inhibits MARK2-mediated phosphorylation of hTau-K18” value (MARK2 [3]; 60 minutes at 32° C., western blot) was “greater than 0.5 μM”.
